Where two headings read alike, the source gives them in different places.
Experiments:
[1] = target: T1, Alpha-2D Adrenergic Receptor (Rattus norvegicus, UniProt P22909); experiment: Alpha-2D Adrenergic Receptor Binding Assay (3H-para-aminoclonidine, rat cortex membranes); conditions: rat cortex synaptic membranes
T1 construct: aliquots of the synaptic membrane fraction; from tissue; host or cells: rat cerebral cortex, synaptic membrane fraction (male Wistar rats)
T1 sequence (P22909 1-465): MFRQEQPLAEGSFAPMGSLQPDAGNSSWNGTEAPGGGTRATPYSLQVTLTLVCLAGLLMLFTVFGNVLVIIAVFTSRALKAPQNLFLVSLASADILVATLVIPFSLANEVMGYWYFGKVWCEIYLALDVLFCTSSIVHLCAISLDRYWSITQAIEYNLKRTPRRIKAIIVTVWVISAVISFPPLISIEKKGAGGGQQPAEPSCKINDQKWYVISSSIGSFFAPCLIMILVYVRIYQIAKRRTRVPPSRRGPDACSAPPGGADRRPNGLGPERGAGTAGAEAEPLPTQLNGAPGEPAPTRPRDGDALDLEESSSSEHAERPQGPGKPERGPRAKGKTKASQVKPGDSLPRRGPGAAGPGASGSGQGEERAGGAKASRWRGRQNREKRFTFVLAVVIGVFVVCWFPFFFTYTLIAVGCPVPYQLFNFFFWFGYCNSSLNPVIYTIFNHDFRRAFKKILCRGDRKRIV
Description: Male, Wistar rats (150-250 g, VAF, Charles River, Kingston, N.Y.) are sacrificed by cervical dislocation and their brains removed and placed immediately in ice cold HEPES buffered sucrose. The cortex is dissected out and homogenized in 20 volumes of HEPES sucrose in a Teflon™-glass homogenizer. The homogenate is centrifuged at 1000 g for 10 min, and the resulting supernatant centrifuged at 42,000 g for 10 min. The resulting pellet is resuspended in 30 volumes of 3 mM potassium phosphate buffer, pH 7.5, preincubated at 25° C. for 30 min and recentrifuged. The resulting pellet is resuspended as described above and used for the receptor binding assay. Incubation is performed in test tubes containing phosphate buffer, 2.5 mM MgCl2, aliquots of the synaptic membrane fraction, the ligand ^3 H-para-aminoclonidine and test drug at 25° C. for 20 min. The incubation is terminated by filtration of the tube contents through glass fiber filter sheets. Following washing of the sheets with 10 mM HEPES buffer, the adhering radioactivity is quantified by liquid scintillation spectrometry.
Binding of the test drug to the receptor is determined by comparing the amount of radiolabeled ligand bound in control tubes without drug to the amount of radiolabeled ligand bound in the presence of the drug. Dose-response data are analyzed with LIGAND, a nonlinear curve fitting program designed specifically for the analysis of ligand binding data. This assay is described by Simmons, R. M. A., and Jones, D. J., Binding of [^3 H-]prazosin and [^3 H]p-aminoclonidine to (α-Adrenoceptors in Rat Spinal Cord, Brain Research 445:338-349, 1988.

[2] = test system: abdominal constriction response; experiment: Mouse Acetylcholine Bromide-Induced Abdominal Constriction Assay (MAIT); type: in vivo; conditions: 30 mg/kg po; 5.5 mg/kg i.p. acetylcholine bromide 30 minutes later; ten minute observation
Description: The mouse acetylcholine bromide-induced abdominal constriction assay, is described by Collier et al. in Brit. J. Pharmacol. Chem. Ther., 32: 295-310, 1968, with minor modifications was used to assess analgesic potency of the compounds herein. The test drugs or appropriate vehicle were administered orally (p.o.) and 30 minutes later the animal received an intraperitoneal (i.p.) injection of 5.5 mg/kg acetylcholine bromide (Matheson, Coleman and Bell, East Rutherford, N.J.). The mice were then placed in groups of three into glass bell jars and observed for a ten minute observation period for the occurrence of an abdominal constriction response (defined as a wave of constriction and elongation passing caudally along the abdominal wall, accompanied by a twisting of the trunk and followed by extension of the hind limbs). The percent inhibition of this response to a nociceptive stimulus (equated to % analgesia) was calculated as follows: The % Inhibition of response, i.e., % analgesia is equal to the difference between the number of control animals responding and the number of drug-treated animals responding times 100 divided by the number of control animals responding.
At least 15 animals were used for control and in each of the drug treated groups. At least three doses were used to determine each dose response curve and ED50 (that dose which would produce 50% analgesia). The ED50 values and their 95% fiducial limits were determined by a computer assisted probit analysis.

[3] = 25° C., 20 min, read-out: α-2D Binding Ki

| Structure (SMILES) | Ki [1, 3] [nM] | MAIT Activity % Inhibition [2] [%] | Ki ([1]; value in parentheses, not explained, read-out: α-2D Binding Ki (second value, in parentheses)) [nM] |
| --- | --- | --- | --- |
| c1cc(-c2c[nH]cn2)c2ccsc2c1 [Cp-1, 4-(Thionaphth-4-yl)-1H-imidazole (Z)-2-butenedioate] | 2.6 | 73 |  |
| C1=C(c2c[nH]cn2)c2ccsc2CC1 [Cp-2, 4-(4-Imidazoyl)-6,7-dihydrothianapthene Perchlorate] | 1.5 | 100 |  |
| c1nc(C2CCCc3sccc32)c[nH]1 (stereo not shown) [Cp-3, 4-(4-Imidazoyl)-4,5,6,7-tetrahydrothianapthene Perchlorate] | 0.56 | 100 |  |
| Cc1sc(C)c2c1CCC=C2c1c[nH]cn1 [Cp-4, 4-(1,3-Dimethyl-6,7-dihydrobenzo[c]thiophene-4-yl)-1H-imidazole(Z)-2-Butenedioate] |  | 40 | 1.2 |
| Cc1sc(C)c2c1CCCC2c1c[nH]cn1.O=C(O)/C=C\C(=O)O (stereo not shown) [Cp-5, 4-(1,3-Dimethyl-4,5,6,7-tetrahydrobenzo[c]thiophene-4-yl)-1H-imidazole (Z)-2-Butenedioate] | 2.9 | 93 |  |
| c1nc(C2CCCc3ccsc32)c[nH]1 (stereo not shown) [Cp-6] | 0.35 |  |  |
| C1=C(c2c[nH]cn2)c2sccc2CC1 [Cp-7] | 3 | 60 |  |
